pIC50: −log10 of the molar value. Read-outs that look alike come from different tables or passages of the source.
Tests used:
Assay type in all cases: biochemical
[1] = molecular target: T1, TXK (Homo sapiens, UniProt P42681); assay: Other kinase MSA: TXK
T1 sequence (P42681 1-527): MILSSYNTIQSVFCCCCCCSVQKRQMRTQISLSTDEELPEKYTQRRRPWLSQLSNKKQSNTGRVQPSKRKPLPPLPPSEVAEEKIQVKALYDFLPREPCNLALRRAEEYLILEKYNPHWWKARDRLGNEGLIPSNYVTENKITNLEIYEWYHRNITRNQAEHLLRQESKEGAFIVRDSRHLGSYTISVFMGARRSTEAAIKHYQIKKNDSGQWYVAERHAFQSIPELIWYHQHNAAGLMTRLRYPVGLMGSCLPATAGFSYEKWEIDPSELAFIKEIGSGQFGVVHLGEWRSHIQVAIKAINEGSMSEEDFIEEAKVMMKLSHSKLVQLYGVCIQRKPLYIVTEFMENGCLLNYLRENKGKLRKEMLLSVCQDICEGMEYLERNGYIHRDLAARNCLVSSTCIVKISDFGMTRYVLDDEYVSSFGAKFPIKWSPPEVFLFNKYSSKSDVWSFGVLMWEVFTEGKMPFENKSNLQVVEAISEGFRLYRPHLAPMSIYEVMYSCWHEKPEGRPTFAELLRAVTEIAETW
Procedure: (§1) Kinase activity, unless otherwise indicated, was measured in vitro using an electrophoretic mobility shift assay (MSA). The phosphorylation of a peptide substrate by BTK and other kinases was measured. The kinase reactions were assembled in a total volume of 25 μL per well in 384 well plates. The following was added to each well: compound buffer (or control); enzyme buffer; and substrate buffer, as further described below. […]
(§2) Enzyme and compound/inhibitor were optionally pre-incubated. […] The kinase activity for the kinases in Table 3 were measured at 3 hours incubation time, except that in the case of MAP2K1 and MAP2K2 assay, pre-activation of ERK was done for 30 min with 6 μM of ATP, and then the detection of activated ERK in the presence of compounds was done after 60 minutes of incubation.
(§3) The terminated reactions were analyzed using a 12 channel LABCHIP® 3000 microfluidic detection instrument (available from Caliper Life Sciences, Waltham, Mass.). […] As substrate and product peptides were separated, two peaks of fluorescence were observed. Change in the relative fluorescence intensity of the substrate and product peaks was the parameter measured, reflecting enzyme activity. […] Capillary electrophoregrams (RDA acquisition files) were analyzed using HTS Well Analyzer software (available from Caliper Life Sciences, Waltham, Mass.). […]

[2] = molecular target: T2, TEC (Homo sapiens, UniProt P42680); assay: Other kinase MSA: TEC
T2 sequence (P42680 1-631): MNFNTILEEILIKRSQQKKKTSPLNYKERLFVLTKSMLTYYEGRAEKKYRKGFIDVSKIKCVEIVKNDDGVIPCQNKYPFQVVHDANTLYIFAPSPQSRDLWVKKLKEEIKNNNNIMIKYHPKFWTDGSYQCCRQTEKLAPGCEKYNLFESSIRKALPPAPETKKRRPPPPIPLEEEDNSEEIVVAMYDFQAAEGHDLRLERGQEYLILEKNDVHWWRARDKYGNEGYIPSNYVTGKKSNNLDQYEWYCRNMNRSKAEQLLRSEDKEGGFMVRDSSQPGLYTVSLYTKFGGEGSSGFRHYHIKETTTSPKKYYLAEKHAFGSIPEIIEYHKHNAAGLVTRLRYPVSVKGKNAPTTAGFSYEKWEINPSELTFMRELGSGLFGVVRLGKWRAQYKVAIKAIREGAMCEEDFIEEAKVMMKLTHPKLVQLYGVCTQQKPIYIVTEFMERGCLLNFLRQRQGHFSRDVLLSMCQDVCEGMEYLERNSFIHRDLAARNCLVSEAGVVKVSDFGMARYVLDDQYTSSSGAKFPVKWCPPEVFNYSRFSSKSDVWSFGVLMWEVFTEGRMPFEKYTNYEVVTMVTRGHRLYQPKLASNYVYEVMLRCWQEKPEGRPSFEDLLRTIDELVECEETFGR
Procedure: as §1, §2, §3

[3] = molecular target: MAP2K2 (Homo sapiens, UniProt P36507); assay: Other kinase MSA: MAP2K2; conditions: 30 μM ATP, ERKtide substrate; pre-activation of ERK 30 min, detection after 60 minutes; read-out: IC50, Enzyme MAP2K2
Procedure: as §1, §2, §3

[4] = molecular target: MAP2K1 (Homo sapiens, UniProt Q02750); assay: Other kinase MSA: MAP2K1; conditions: 25 μM ATP, ERKtide substrate; pre-activation of ERK 30 min, detection after 60 minutes; read-out: IC50, Enzyme MAP2K1
Procedure: as §1, §2, §3

Chain of MAP2K2 (P36507 whole entry, species assumed): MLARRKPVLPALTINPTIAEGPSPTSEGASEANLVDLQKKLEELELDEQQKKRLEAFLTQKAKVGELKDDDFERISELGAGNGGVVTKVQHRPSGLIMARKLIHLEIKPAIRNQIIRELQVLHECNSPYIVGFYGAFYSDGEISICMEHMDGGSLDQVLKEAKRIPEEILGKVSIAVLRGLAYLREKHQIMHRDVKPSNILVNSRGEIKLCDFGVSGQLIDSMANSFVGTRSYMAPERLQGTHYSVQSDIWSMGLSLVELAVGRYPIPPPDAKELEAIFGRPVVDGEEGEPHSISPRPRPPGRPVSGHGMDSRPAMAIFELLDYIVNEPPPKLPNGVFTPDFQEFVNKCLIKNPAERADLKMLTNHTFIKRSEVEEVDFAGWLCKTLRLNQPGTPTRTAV
Chain of MAP2K1 (Q02750 whole entry, species assumed): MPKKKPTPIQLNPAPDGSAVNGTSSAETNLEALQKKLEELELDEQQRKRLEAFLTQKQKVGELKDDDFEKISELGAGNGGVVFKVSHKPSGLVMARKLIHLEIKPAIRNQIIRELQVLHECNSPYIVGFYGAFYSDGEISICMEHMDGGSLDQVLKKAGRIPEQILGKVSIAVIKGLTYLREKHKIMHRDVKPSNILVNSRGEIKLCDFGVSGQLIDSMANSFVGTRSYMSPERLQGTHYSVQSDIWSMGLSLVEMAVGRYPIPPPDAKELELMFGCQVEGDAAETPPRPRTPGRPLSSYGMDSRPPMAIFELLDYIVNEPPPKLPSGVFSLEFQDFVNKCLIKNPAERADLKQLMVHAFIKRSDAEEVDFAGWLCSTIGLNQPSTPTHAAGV

| Structure (SMILES) | pIC50 [1] | pIC50 [2] | pIC50 [3] | pIC50 ([1]; 100 μM ATP, SRCtide substrate, 3 hours, read-out: IC50, Enzyme TXK) | pIC50 ([2]; 50 μM ATP, SRCtide substrate, 3 hours, read-out: IC50, Enzyme TEC) | pIC50 [4] |
| --- | --- | --- | --- | --- | --- | --- |
| C=CC(=O)N1CCN([C@@H]2CCNc3c2nn(-c2ccc(Oc4ccccc4)cc2)c3C(N)=O)CC1 [Example 6, (7R)-2-(4-phenoxyphenyl)-7-[4-(prop-2-enoyl)piperazin-1-yl]-4,5,6,7-tetrahydro-2H-pyrazolo[4,3-b]pyridine-3-carboxamide] | 6.65 | 7.83 | 5.11 | – | – | – |
| C=CC(=O)N1CCC([C@@H]2CCNc3c(C(N)=O)c(-c4ccc(Oc5ccccc5)cc4)nn32)CC1 [Compound A, reference compound] | – | – | 7.12 | 8.72 | 9.10 | 7.38 |

— patent US20220213092A1, “BICYCLIC PYRAZOLE BRUTON'S TYROSINE KINASE INHIBITORS” (AbbVie Inc., priority 2020, published 2022)
